Data published in ChEMBL document CHEMBL2176898, “3-Alkoxy-1,2-Dioxolanes: Synthesis and Evaluation as Potential Antimalarial Agents” (ACS Med Chem Lett, 2011).

Each compound was assayed on Plasmodium falciparum (assay: microbe, parasite or virus in culture). Details: NF54.
Description: Antimicrobial activity against Plasmodium falciparum NF54
With CCCCOC1(C)CC(C)(C)OO1 (stereo unspecified) the IC50 was > 10 µM.
Work on COC1(Cc2ccccc2)CC2(CCCCC2)OO1 (stereo unspecified) yielded an IC50 of 0.34 µM.
CCCCC1(C)CC(C)(OCCc2ccccc2)OO1 (mixture of isomers) was tested, and the IC50 was 0.076 µM.
C[C@H]1[C@H](OC(=O)CCC(=O)O)O[C@@H]2O[C@@]3(C)CC[C@H]4[C@H](C)CC[C@@H]1[C@@]24OO3 [ARTESUNATE] showed an IC50 of 0.0025 µM.
CC1(OCC23CC4CC(CC(C4)C2)C3)CC2(CCCCC2)OO1 (stereo unspecified) gave an IC50 of 0.035 µM.
CC1(C)CC(C)(OCC23CC4CC(CC(C4)C2)C3)OO1 (stereo unspecified) was tested, and the IC50 was 0.29 µM.
COC1(C2CCCCC2)CC2(CCCCC2)OO1 (stereo unspecified) showed an IC50 of 0.0092 µM.
With CC1(OCCc2ccccc2)CC2(CCCCC2)OO1 (stereo unspecified) the IC50 was 0.009 µM.
Work on CCCCC1(C)CC(C)(OCC23CC4CC(CC(C4)C2)C3)OO1 (mixture of isomers) yielded an IC50 of 0.14 µM.
CCCCC1(C)CC(C)(OCCC)OO1 (mixture of isomers) was tested, and the IC50 was > 4 µM.
In the case of COC1(Cc2ccccc2)CC(C)(C)OO1 (stereo unspecified), the IC50 is reported as 0.97 µM.
